According to publication PMC11678782, “The Antioxidant and Anti-Inflammatory Activities of the Methanolic Extract, Fractions, and Isolated Compounds from Eriosema montanum Baker f. (Fabaceae)” (Molecules, 2024):
≈ marks a conversion by molar mass, not a printed value.

What was measured:
[1] = tested on: LPS-activated J774.A1 cells; parameters: method as in PMID 17637182; details: cited from earlier work
[2] = tested on: LPS-stimulated RAW 264.7 cells; assay: ROS production in LPS-stimulated RAW 264.7 cells (DCFH-DA); format: cell-based, murine; details: 25, 50, 100 µg/mL, 2 h pre-treatment, 200 ng/mL LPS 24 h
Procedure: For ROS production inhibition, on a black/clear bottom 96-well plate, RAW 264.7 cells were seeded at a density of 10,000 cells per well. The cells were then pre-treated with non-toxic quantities of EMME and genistin (5) at 25, 50, and 100 µg/mL for two hours and then exposed to 200 ng/mL of LPS for twenty-four hours under standard culture conditions. Thereafter, the cells were washed twice with PBS, followed by the addition of 100 µL of fresh FBS-free medium containing 10 µM of the fluorescent probe 2′,7′-dichlorodihydrofluorescein diacetate (DCFH-DA) (Sigma-Aldrich, Darmstadt, Germany). After 30 min of additional incubation under usual culture conditions, PBS was added to the plate in place of the fluorescent probe. The fluorescence of the cells was measured using a SpectraMax iD3 multi-mode microplate reader (Molecular Devices, San Jose, CA, USA) at 485 nm (excitation) and 535 nm (emission). The percentage of cells treated with DMSO 0.5% without LPS, known as the negative control, was used to express the intracellular ROS levels. Using an excitation/emission filter (480/535 nm) on a 40× objective, images were taken with a camera (Flexacam C1, Leica Microsystems, Wetzlar, Germany) attached to a fluorescence microscope (Leica Microsytems GmbH, Wetzlar, Germany).

[3] = ABTS radical scavenging assay; details: 5 min, 734 nm
Procedure: (§1) Three in vitro antioxidant assays, namely, 2,2′-azinobis-(3-ethylbenzothiazoline-6-sulfonic acid (ABTS), 2,2′-diphenyl-1-picrylhydrazyl (DPPH), and ferric ion reducing antioxidant power (FRAP), were used to determine the antioxidant activity according to methods previously reported. Ascorbic acid (0 to 200 μg/mL) was used as positive control in these experiments, and Formula (1) below allowed us to evaluate the percentage of radical scavenging capacity. The inhibitory concentration (IC50) values were evaluated by plotting a nonlinear graph of percentage radical scavenging capacity versus logarithm of tested concentrations. Scavenging capacity (%) = [(A0 − A1)/A0] × 100(1) where A0 is absorbance of negative control, and A1 is absorbance of extract with ABTS^•+ radical cation.
Specifically, 2.45 mM of potassium persulfate and 7 mM of ABTS solution were dissolved in methanol and combined to create the ABTS^•+ radical cation, which was stored at 25 °C for a minimum of 16 h. At 734 nm, the absorbance of the generated ABTS^•+ was measured using a SpectraMax iD3 multi-mode microplate reader (Molecular Devices, San Jose, CA, USA) and calibrated to 0.70 ± 0.02. After carefully diluting 40 μL of EMME (1 mg/mL) with methanol and adding 160 μL of (ABTS^•+) radical cation, the 96-well microtiter plate was left to sit at 25 °C in the dark for five minutes. Using a SpectraMax iD3 multi-mode microplate reader, the absorbance values were measured at 734 nm against the blank (extract plus methanol without ABTS^•+). A nonlinear curve representing the percentage of ABTS^•+ scavenging capacity vs. a logarithm of tested concentrations was then plotted to determine the inhibitory concentration (IC50) values.
(§2) The IC50 values were calculated for each biological experiment using the nonlinear regression curve of the % inhibitory activity versus the logarithm (log10) of the various tested concentrations using GraphPad Prism 6.0 software (GraphPad Software, Inc., San Diego, CA, USA). The data are shown as mean ⁱ SEM (standard error of the mean) values, and all biological experiments were conducted in triplicate (n = 3). The statistical analysis was conducted using GraphPad Prism 6.0 software (GraphPad Software, Inc., San Diego, CA, USA). One-way analysis of variance (ANOVA) was used to compare the data across the tested samples and/or controls, and Student–Newman–Keuls or Dunnett’s tests were then performed. A p-value of less than 0.05 indicated a significant difference in the results.

[4] = Ferric reducing antioxidant power (FRAP) assay; details: relative to 200 µg/mL gallic acid, 700 nm
Procedure: as §1
The generally used and almost standard method for performing the FRAP test is that developed by Benzie and Strain [15]. Indeed, the antioxidant power is determined in a colorimetric reaction linked to redox in which an intense blue-colored ferroustripyridyltriazine (Fe^2+-TPTZ) complex is obtained via reduction at a low pH of ferrictripyridyltriazine (Fe^3+-TPTZ). The incubation of a quantity of 50 μL of EMME (1.56 to 200 μg/mL) or 200 μg/mL of gallic acid (Merck, Lethabong, South Africa) on a 96-well plate was carried out with 50 μL of 1% potassium ferricyanide (prepared in 0.2 M of sodium phosphate buffer, pH 6.6) for 30 min at 50 °C. Then, 50 μL of 10% trichloroacetic acid (TCA), 40 μL of distilled water, and 10 μL of 0.1% ferric chloride were added, respectively. The absorbance values were recorded on a blank (extract plus sodium phosphate buffer) at 700 nm on a SpectraMax iD3 multi-mode microplate reader (Molecular Devices, San Jose, CA, USA); the FRAP activity was indicated as inhibition percentage of 200 μg/mL of gallic acid.
as §2

[5] = DPPH radical scavenging assay; details: 30 min, 517 nm
Procedure: as §1
To be able to determine the DPPH^• scavenging capacity of EMME, we performed a serial dilution of 40 μL of the sample (1 mg/mL) with methanol on a 96-well microtiter plate, with 160 μL of solution of DPPH^• thereafter (25 μg/mL). The incubation at 25 °C in the dark was performed after 30 min, with the absorbance values measured at 517 nm on a SpectraMax iD3 multi-mode microplate against a blank (extract plus methanol without DPPH^•). […]. Methanol with DPPH^• served as the negative control. Using Formula (1), the DPPH scavenging capability was calculated at the measured concentrations above, and as previously enumerated, the IC50 values were also calculated, as indicated in the previously described procedure.
as §2

[6] = tested on: LPS-stimulated RAW264.7 cells; parameters: method as in PMID 33202848, PMID 29471006; details: cited from earlier work
soybeans 15-LOX = molecular target: T1, soybeans 15-LOX (Glycine max, UniProt P08170); assay: 15-lipoxygenase enzyme inhibitory assay (FOX); format: biochemical, soybean
T1 construct: purchased Merck, Darmstadt, Germany
T1 sequence (P08170 1-839): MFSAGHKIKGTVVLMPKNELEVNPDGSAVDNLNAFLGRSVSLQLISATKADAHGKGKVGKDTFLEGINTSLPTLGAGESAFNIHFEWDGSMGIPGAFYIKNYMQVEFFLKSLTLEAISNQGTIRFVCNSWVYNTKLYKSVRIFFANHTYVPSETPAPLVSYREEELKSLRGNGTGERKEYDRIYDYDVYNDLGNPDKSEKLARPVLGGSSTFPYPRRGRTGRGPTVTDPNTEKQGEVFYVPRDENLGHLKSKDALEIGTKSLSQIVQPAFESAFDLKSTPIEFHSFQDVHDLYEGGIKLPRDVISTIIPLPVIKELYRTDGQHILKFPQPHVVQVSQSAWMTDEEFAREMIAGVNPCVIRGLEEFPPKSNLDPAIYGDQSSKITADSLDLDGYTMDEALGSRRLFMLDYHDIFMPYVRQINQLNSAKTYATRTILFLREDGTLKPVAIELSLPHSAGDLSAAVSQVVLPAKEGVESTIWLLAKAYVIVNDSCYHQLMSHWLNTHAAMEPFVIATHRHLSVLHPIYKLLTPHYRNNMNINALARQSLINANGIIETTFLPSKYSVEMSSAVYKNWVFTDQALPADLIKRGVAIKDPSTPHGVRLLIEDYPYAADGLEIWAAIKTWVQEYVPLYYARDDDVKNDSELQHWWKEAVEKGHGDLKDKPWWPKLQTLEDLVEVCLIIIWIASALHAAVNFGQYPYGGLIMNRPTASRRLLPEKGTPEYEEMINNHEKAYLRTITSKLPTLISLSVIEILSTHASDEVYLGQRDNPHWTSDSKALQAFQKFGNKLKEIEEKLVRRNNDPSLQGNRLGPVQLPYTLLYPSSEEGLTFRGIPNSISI
Procedure: The method developed by Pinto et al. was used to determine the effect of the tested samples on 15-LOX inhibitory activity, with slight modifications to the 96-well microtitre plate format. Using 20 µL of tested samples at varying concentrations (3.90 to 500 µg/mL), the soybeans 15-LOX (Merck, Darmstadt, Germany) (40 µL, 200 UI/mL) were incubated at 25 °C for 5 min. The plate was then incubated at 25 °C for 20 min in the dark; after, 40 µL of linoleic acid (final concentration, 140 μM) produced in Tris-HCl buffer (50 mM, pH 7.4) was added. A total of 100 µL of the FOX reagent—sulfuric acid (30 mM), xylenol orange (100 μM), and ferrous II) sulfate (100 μM) mixed in methanol/water (9:1)—was added to terminate the test. A SpectraMax iD3 multi-mode microplate reader (Molecular Devices, San Jose, CA, USA) was used to measure the absorbance at 560 nm following 30 min of incubation at 25 °C in the dark. Gallic acid (0.78 to 100 µg/mL) was employed as the usual inhibitor of 15-LOX, while DMSO at 5% (v/v) served as the negative control. With the exception of adding the substrate after the FOX reagent, the blanks were prepared exactly like the tested samples. Formula (2) below was used to compute the 15-LOX inhibitory activity. 15 LOX inhibitory activity (%) = 100 − [(A0 − A1) − (A2 − A1)] × 100(2) where A0 is absorbance of test samples, A1 is absorbance of blank, and A2 is absorbance of negative control (DMSO 5%).
as §2

[7] = tested on: LPS-stimulated RAW 264.7 cells; assay: NO production inhibition in LPS-stimulated RAW 264.7 cells (Griess); format: cell-based, murine; details: Mus musculus, RAW264.7; RAW 264.7, 2 h pre-treatment, 500 ng/mL LPS 24 h
Procedure: […] in a humidified environment containing 5% CO2 and 95% air. For NO and ROS production inhibition assays, the cytotoxic effect of tested samples at 100 µg/mL after 24 h of exposure was initially measured on RAW 264.7 cells (10,000 cells per well) using the standard MTT assay. Then, for NO production inhibition assay, RAW 264.7 cells were pre-treated with tested samples at 100 µg/mL for 2 h followed by addition of culture medium containing 500 ng/mL of lipopolysaccharide (LPS) (Merck, Darmstadt, Germany). After 24 h of incubation under standard cell-culture conditions, NO released was measured in cell supernatants using the Griess reagent (Sigma Aldrich, Darmstadt, Germany), and a SpectraMax iD3 multi-mode microplate reader (Molecular Devices, San Jose, CA, USA) was used to capture the absorbance readings at 540 nm. The ability of each tested material to reduce nitric oxide synthesis by LPS-stimulated RAW 264.7 macrophages in comparison to the negative control (cells treated with DMSO at 0.5% and LPS without extract) was used to calculate the percentage of NO production inhibition.
as §2

[8] = tested on: prostaglandins, iNOS, pro-inflammatory cytokines, ROS, NF-κB signaling pathway; parameters: method as in PMID 35140617, PMID 32115816; details: down-regulation of prostaglandins; cited from earlier work

O=c1cc(-c2ccc(O)cc2)oc2cc(O[C@@H]3O[C@H](CO)[C@@H](O)[C@H](O)[C@H]3O[C@@H]3OC[C@](O)(CO)[C@H]3O)cc(O)c12 [Apiin]
Inhibitory activity on NO production and iNOS expression [1]: significant inhibitory activity

O=C1O[C@H]([C@@H](O)CO)C(O)=C1O [Ascorbic acid, reference compound]
Inhibition of LPS-induced ROS production [2]: significantly inhibit
IC50 ABTS [3]: 1.28 ± 0.81 µg/mL (≈ 7.27 µM)
IC50 FRAP [4]: 23.68 ± 2.89 µg/mL (≈ 134 µM)
IC50 DPPH [5]: 4.08 ± 1.04 µg/mL (≈ 23.2 µM)

C[C@@H]1O[C@@H](O[C@H]2C(=O)c3c(O)cc(O)cc3O[C@@H]2c2ccc(O)c(O)c2)[C@H](O)[C@H](O)[C@H]1O [Astilbin]
Inhibition of IL-1β, IL-6, NO production and NF-κB-p65 expression [6]: significantly inhibiting

O=C(O)c1cc(O)c(O)c(O)c1 [Gallic acid, reference compound]
IC50 (soybeans 15-LOX): 145 µM

O=c1c(O)c(-c2ccc(O)c(O)c2)oc2cc(O)cc(O)c12 [Quercetin, reference compound]
IC50 [7]: 8.93 ± 0.4 µg/mL (≈ 29.5 µM)

O=c1c(-c2ccc(O)cc2)coc2cc(O)cc(O)c12 [genistein]
Anti-inflammatory activities [8]: strong anti-inflammatory activities
